Experimental data from patent US10231971B2, “Pharmaceutical composition for preventing and treating dry eye diseases, containing imatinib as active ingredient” (AVIXGEN INC., priority 2015, dated 2019).

Experiments:
[1] = test system: keratoconjunctivitis sicca (dry eye) animal model; assay: Corneal epithelium protection: lissamine green staining of the cornea in keratoconjunctivitis sicca model; format: in vivo, Spraque-Dawley (SD) rats
Procedure: To carry out an experiment for dry corneal epithelial damage, a dry eye animal model was constructed. 8-week-old Spraque-Dawley (SD) rats (available from Orient Bio) were used as an animal, keratoconjunctivitis sicca was induced by administering an eye drop containing 0.1% benzalkonium chloride (Sigma Aldrich) in 1% atropine sulfate (Alcon) twice a day for 2 weeks.
The imatinib eye drop (1 mg/ml) was administered dropwise to an eye twice a day for 1 week after 7 days of administration of 1% atropine sulfate and 0.1% benzalkonium chloride. To compare therapeutic effects, a 0.05% Cyclosporin eye drop (Restasis, Allergan) was used as a reference drug.
Corneal epithelial damage was identified in the keratoconjunctivitis sicca animal model by staining a surface of the cornea with a 1% lissamin green solution and observing a damaged region thereof (see FIG. 1).
Damage to corneal epithelium cells due to dryness was identified in a keratoconjunctivitis sicca (dry eye)-induced cornea by staining a dried state of the corneal epithelium cells with lissamin green (see FIG. 1). […] A stained area after staining was expressed as a percentage (%) with respect to a total corneal area.

[2] = test system: keratoconjunctivitis sicca (dry eye) animal model; settings: imatinib eye drop (0.1 mg/ml), twice a day for 1 week; FIG. 4
Procedure: White SD rats were used as an animal, and keratoconjunctivitis sicca was induced by administering 1% atropine sulfate and 0.1% benzalkonium chloride dropwise to an eye twice a day for 2 weeks.
An imatinib eye drop (0.1 mg/ml) was administered dropwise to an eye twice a day for 1 week after 7 days of administration of 1% atropine sulfate and 0.1% benzalkonium chloride.
In order to observe corneal degeneration in the keratoconjunctivitis sicca (dry eye) model, F-actin staining was performed. F-actin was stained with phalloidin labeled with a fluorescent material.

[3] = test system: keratoconjunctivitis sicca (dry eye) animal model; assay: Invasion of specific inflammatory cells into the cornea: LSP-1 immunostaining in keratoconjunctivitis sicca model; format: in vivo, Spraque-Dawley (SD) rats; settings: imatinib eye drop 0.1%
Procedure: An experiment was carried out using the same administration method as that used in the animal model of Example 1, and then an inflammation inhibitory effect of imatinib on specific inflammatory cells invaded into the cornea was identified.
To identify inflammatory cells in the cornea in keratoconjunctivitis sicca (dry eye), the eye was cryosectioned, and inflammatory cells having an antigen of LSP-1 were stained and observed (See FIG. 5). Inflammation-associated cells such as lymphocytes, neutrophils, and macrophages have LSP-1 can be observed after being immunostained using an LSP-1 antibody. Inflammatory cells were observed by 0.61±0.05 in a control (a drug-non-treated group) and by 0.52±0.05 in an imatinib eye drop (0.1%) (See FIG. 6).

SMILES: Cc1ccc(NC(=O)c2ccc(CN3CCN(C)CC3)cc2)cc1Nc1nccc(-c2cccnc2)n1 [imatinib]
- lissamine green stained area as percentage of total corneal area ([1]; concentration-dependent efficacy test, 0.01% (0.1 mg/ml), vehicle control 12.8±1.98%, FIG. 3): 8.2±0.97%
- lissamine green stained area as percentage of total corneal area ([1]; concentration-dependent efficacy test, 0.05% (0.5 mg/ml), vehicle control 12.8±1.98%, FIG. 3): 6.18±0.9%
- lissamine green stained area as percentage of total corneal area ([1]; concentration-dependent efficacy test, 0.1% (1 mg/ml), vehicle control 12.8±1.98%, FIG. 3): 3.7±0.87%
- lissamine green stained area as percentage of total corneal area ([1]; concentration-dependent efficacy test, 0.5% (5 mg/ml), vehicle control 12.8±1.98%, FIG. 3): 3.5±1.1%
- lissamine green stained area as percentage of total corneal area ([1]; concentration-dependent efficacy test, 1.0% (10 mg/ml), vehicle control 12.8±1.98%, FIG. 3): 3.1±1.2%
- effect on lissamine green staining when administered according to concentration ([1]; imatinib 0.01% to 1.0%, FIG. 3): concentration-dependent effect
- lissamine green stained area as percentage of total corneal area ([1]; imatinib 0.1% (1 mg/ml) eye drop, twice a day for 1 week, vehicle control 11±1.26%, FIG. 2): 2.6±0.39%
- corneal degeneration (keratinization of corneal epithelial cells, F-actin staining) [2]: not observed
- effect on inflammation in keratoconjunctivitis sicca (inflammatory cell staining) [3]: had an inflammation inhibitory effect
- inflammatory cells observed (LSP-1-stained cells in the cornea) ([3]; control (drug-non-treated group) 0.61±0.05, FIG. 6): 0.52±0.05
